This data set is described as follows: In vitro release rate evaluation: evaporative weight loss of butylate from microcapsules under vacuum (Cahn RH electrobalance). The conditions noted are these: 40° C. In kind it is physicochemical. The procedure: This composition was tested in vitro for release rate in the presence of acid as follows: 5.0 grams of formulation were diluted with 25.0 grams of water. Two 1.5 gram aliquots were removed, vacuum filtered onto 0.22 μm filter paper, and placed in a jar (to reduce volatilization of butylate) until the release rate measurement was performed. The remainder of the solution was treated with a concentrated solution of p-toluenesulfonic acid to pH 2.02. The acid treated solution was rolled for 10 minutes after which several 1.5 gram aliquots of the acid treated solution were removed, vacuum filtered onto 0.22 μm filter paper, and placed in a jar (to reduce volatilization butylate) until the release rate measurement was performed.
Release rate studies were conducted employing a Cahn RH electrobalance to monitor the rate of evaporative weight loss of butylate (a model compound with a high vapor pressure) from microcapsules under vacuum. The sample (on the filter paper) was placed on the sample pan of the electrobalance and allowed to equilibrate at 40° C. for 10-15 minutes in the sealed system prior to placing under vacuum. The weight loss, measured with the electrobalance enclosed under vacuum, was recorded on a chart recorder.

Consider `CCSC(=O)N(CC(C)C)CC(C)C` [butylate, S-ethyl diisobutyl thiocarbamate], for which the “release rate of non-encapsulated butylate” value is recorded as “The release rate of non-encapsulated butylate was determined to be about 17-19 mg/min”.

The record behind these values is patent US6337130B1, “Acid-triggered release microcapsules” (Zeneca Limited, priority 1998, dated 2002).
